Biological target: T1, SHP2 protein (Homo sapiens, UniProt Q06124)
T1 sequence (Q06124 1-593): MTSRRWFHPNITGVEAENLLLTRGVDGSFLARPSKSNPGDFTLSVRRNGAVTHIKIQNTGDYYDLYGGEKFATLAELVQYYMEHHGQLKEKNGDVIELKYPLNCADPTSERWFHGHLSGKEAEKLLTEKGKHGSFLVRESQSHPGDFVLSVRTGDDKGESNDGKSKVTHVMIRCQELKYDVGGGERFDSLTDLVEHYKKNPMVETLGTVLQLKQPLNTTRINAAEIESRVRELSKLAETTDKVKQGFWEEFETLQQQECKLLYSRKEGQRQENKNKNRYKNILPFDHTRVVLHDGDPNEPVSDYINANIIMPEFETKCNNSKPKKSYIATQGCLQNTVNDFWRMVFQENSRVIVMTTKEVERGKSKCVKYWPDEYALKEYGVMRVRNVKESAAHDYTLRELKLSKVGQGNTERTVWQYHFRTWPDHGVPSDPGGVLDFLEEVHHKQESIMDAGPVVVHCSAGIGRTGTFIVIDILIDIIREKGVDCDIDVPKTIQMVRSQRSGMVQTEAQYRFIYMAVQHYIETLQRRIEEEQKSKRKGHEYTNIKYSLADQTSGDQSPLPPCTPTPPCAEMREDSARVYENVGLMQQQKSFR
Assay: Measurement of SHP2 protein degradation in NCI-H358 cells (western blotting)
Assay type: cell-based
Set-up: endogenous in cells; host or cells: NCI-H358
Conditions: harvested after 24 hours
Procedure: H358 cells were treated with the synthesized Example compounds, and the amount of SHP2 protein present in the cells was measured using western blotting detection. The protocol for the experiment using H358 cells is as follows.
[Culture]H358 cells were resuspended in RPMI1640 with 25 mM HEPES (Hyclone, SH30255.01), 10% FBS (Hyclone, SV30207.02), 1% Penicillin-streptomycin (Welgene, LS 202-02) media, seeded at 3×10^5/mL in 12-well plates (1 mL each), and cultured for 24 hours.
[Compound treatment] Before compound treatment, the media was changed to 1 mL media, and then the 12-well plate was treated as follows. The 10 mM stock dissolved in DMSO was serially diluted 1/100 or 1/10 with the media, and the compound was treated to the cells at a final concentration of 0.001, 0.01, and 0.1 μM, and harvested after 24 hours. For the negative control group, DMSO diluted 1/1000 in the media was added (1 μL DMSO+999 μL media).
[Harvest]24 hours after compound treatment, each well was scraped with a cell lifter (SPL, 90040), pipetted with a 1 mL pipette, collected in a 1.5 mL microtube, and centrifuged (500 g, 5 min, 4° C.). The supernatant was removed, washed with PBS, and centrifuged again (500 g, 5 min, 4° C.). Afterwards, the supernatant was removed to prepare a pellet.
[Cell lysis and sample preparation] Lysis buffer was prepared as follows. RIPA buffer (Biosesang, RC2038-050-00)+0.5 mM PMSF (SIGMA, P7626)+1× Protease/Phosphatase Inhibitor (Cell signaling, 5872S) were added at 30 μL per tube, vortexed, and incubated on ice for 30 minutes. Afterwards, sonication was performed (10 sec pulse, 30 sec rest, 5 cycles, 70% amplification) and centrifugation was performed (15,000 g, 15 min, 4° C.), and only the supernatant was transferred to a microtube. A 96-well plate was diluted to 1/4 with 7.5 μL of RIPA buffer and 2.5 μL of sample, and 200 μL each was added after mixing A and B of the BCA Protein Assay Kit (iNtRON, 21071) in a ratio of 50:1. The plate was incubated at 37° C. for 30 minutes and left at room temperature for 10 minutes. After shaking for 10 seconds with a SYNERGY H1 microplate reader from BioTek, the absorbance was measured at 562 nm. The protein was quantified using the measured value to make a sample, which was then incubated at 70° C. for 10 minutes. The sample buffer used here was a mixture of NuPAGE or Bolt 4× sample buffer (Invitrogen) and each 10× sample reducing agent depending on the gel to be used, and RIPA buffer was used for protein dilution.
[Western blotting detection] Equal amounts of samples were loaded onto NuPAGE or Bolt Bis-tris 4-12% gradient gel and run (200 V, 35 min). This was transferred to […] NC membrane using Trans-blot Turbo (BIO-RAD) (1.3 A constant, 25 V limit, 15 min), and blocked with 5% skim milk/0.2% TBST for 45 min at room temperature. Anti-SHPTP2 Mouse (1:1,000 in 5% skim milk/0.2% TBST, size: 70 kDa, Santa cruz sc-7384) and Anti-GAPDH Rabbit (1:2,000 in 5% skim milk or 5% BSA/0.2% TBST, size: 37 kDa, CST #2118) were added and incubated overnight at 4° C. After washing three times with 0.2% TBST washing buffer for 5 minutes each, secondary antibodies Anti-Mouse IgG (1:5,000 in 5% skim milk/0.2% TBST, CST) and IRDye® 680RD Goat anti-Rabbit IgG Secondary Antibody (1:10,000 in 5% skim milk/0.2% TBST, LI-COR 926-68071) were added, and incubated on a rocker at room temperature for 45 minutes. The resultants were washed five times with 0.2% TBST washing buffer for 5 minutes each, and detected using LI-COR's Odyssey. GAPDH was detected with a 700 nm channel, and SHPTP2 was detected using SuperSignal West Pico PLUS Chemiluminescent Substrate.

Row | SMILES | SHP2% degradation (0.01 μM) | SHP2% degradation (0.1 μM)
1 | CC(=O)N[C@H](C(=O)N1C[C@H](O)C[C@H]1C(=O)NCc1ccc(-c2scnc2C)cc1O[C@H]1CC[C@H](C(=O)N2CCC(n3cc(F)c4c(Sc5cnc(N6CCC(C)(CN)CC6)cn5)cccc43)CC2)CC1)C(C)(C)C [Example 37, (2S,4R)-1-((S)-2-acetamido-3,3-dimethylbutanoyl)-N-(2-(((1r,4S)-4-(4-(4-((5-(4-(aminomethyl)-4-methylpiperidin-1-yl)pyrazin-2-yl)thio)-3-fluoro-1H-indol-1-yl)piperidine-1-carbonyl)cyclohexyl)oxy)-4-(4-methylthiazol-5-yl)benzyl)-4-hydroxypyrrolidine-2-carboxamide] | 75.8% | 99. %
2 | CC(=O)N[C@H](C(=O)N1C[C@H](O)C[C@H]1C(=O)NCc1ccc(-c2scnc2C)cc1O[C@H]1CC[C@H](C(=O)N2CCC(c3cccc(Sc4cnc(N5CCC(C)(CN)CC5)cn4)c3Cl)CC2)CC1)C(C)(C)C [Example 46, (2S,4R)-1-((S)-2-acetamido-3,3-dimethylbutanoyl)-N-(2-(((1r,4S)-4-(4-(3-((5-(4-(aminomethyl)-4-methylpiperidin-1-yl)pyrazin-2-yl)thio)-2-chlorophenyl)piperidine-1-carbonyl)cyclohexyl)oxy)-4-(4-methylthiazol-5-yl)benzyl)-4-hydroxypyrrolidine-2-carboxamide] | 33.8% | 93.2%
3 | CC(=O)N[C@H](C(=O)N1C[C@H](O)C[C@H]1C(=O)NCc1ccc(-c2scnc2C)cc1OC1CCN(C(=O)C2CCN(c3nccc(Sc4cnc(N5CCC(C)(N)CC5)c(CO)n4)c3Cl)CC2)CC1)C(C)(C)C [Example 79, (2S,4R)-1-((S)-2-acetamido-3,3-dimethylbutanoyl)-N-(2-((1-(1-(4-((5-(4-amino-4-methylpiperidin-1-yl)-6-(hydroxymethyl)pyrazin-2-yl)thio)-3-chloropyridin-2-yl)piperidine-4-carbonyl)piperidin-4-yl)oxy)-4-(4-methylthiazol-5-yl)benzyl)-4-hydroxypyrrolidine-2-carboxamide] | 96.1% | 99.9%
4 | CC(=O)N[C@H](C(=O)N1C[C@H](O)C[C@H]1C(=O)NCc1ccc(-c2scnc2C)cc1O[C@H]1CC[C@H](C(=O)N2CCC(Nc3nccc(Sc4cnc(N5CCC(C)(CN)CC5)c(CO)n4)c3Cl)CC2)CC1)C(C)(C)C [Example 45, (2S,4R)-1-((S)-2-acetamido-3,3-dimethylbutanoyl)-N-(2-(((1r,4S)-4-(4-((4-((5-(4-(aminomethyl)-4-methylpiperidin-1-yl)-6-(hydroxymethyl)pyrazin-2-yl)thio)-3-chloropyridin-2-yl)amino)piperidine-1-carbonyl)cyclohexyl)oxy)-4-(4-methylthiazol-5-yl)benzyl)-4-hydroxypyrrolidine-2-carboxamide] | 97.0% | 99.4%

Further lines, results first:

Row | SHP2% degradation (0.01 μM) | SHP2% degradation (0.1 μM) | SMILES
5 | 99.9% | 99.9% | Cc1cc(C(C(=O)N2C[C@H](O)C[C@H]2C(=O)NCc2ccc(-c3scnc3C)cc2OC2CCN(C(=O)C3CCN(c4nccc(Sc5cnc(N6CCC(C)(CN)CC6)cn5)c4Cl)CC3)CC2)C(C)C)on1 (stereo partly drawn) [Example 93, (2S,4R)—N-(2-((1-(1-(4-((5-(4-(aminomethyl)-4-methylpiperidin-1-yl)pyrazin-2-yl)thio)-3-chloropyridin-2-yl)piperidine-4-carbonyl)piperidin-4-yl)oxy)-4-(4-methylthiazol-5-yl)benzyl)-4-hydroxy-1-(3-methyl-2-(3-methylisoxazol-5-yl)butanoyl)pyrrolidine-2-carboxamide]
6 | 99.1% | 97.3% | Cc1ncsc1-c1ccc(CNC(=O)[C@@H]2C[C@@H](O)CN2C(=O)[C@H](C(C)C)n2cc(C3CC3)nn2)c(OC2CCN(C(=O)C3CCN(c4nccc(Sc5cnc(N6CCC7(CC6)CO[C@@H](C)[C@H]7N)c(CO)n5)c4Cl)CC3)CC2)c1 [Example 106, (2S,4R)—N-(2-((1-(1-(4-((5-((3S,4S)-4-amino-3-methyl-2-oxa-8-azaspiro[4.5]decan-8-yl)-6-(hydroxymethyl)pyrazin-2-yl)thio)-3-chloropyridin-2-yl)piperidine-4-carbonyl)piperidin-4-yl)oxy)-4-(4-methylthiazol-5-yl)benzyl)-1-((S)-2-(4-cyclopropyl-1H-1,2,3-triazol-1-yl)-3-methylbutanoyl)-4-hydroxypyrrolidine-2-carboxamide]
7 | 99.6% | 99.5% | CC(=O)N[C@H](C(=O)N1C[C@H](O)C[C@H]1C(=O)NCc1ccc(-c2scnc2C)cc1OC1CCN(C(=O)C2CCN(c3nccc(Sc4cnc(N5CCC6(CC5)CO[C@@H](C)[C@H]6N)c(CO)n4)c3Cl)CC2)CC1)C(C)(C)C [Example 80, (2S,4R)-1-((S)-2-acetamido-3,3-dimethylbutanoyl)-N-(2-((1-(1-(4-((5-((3S,4S)-4-amino-3-methyl-2-oxa-8-azaspiro[4.5]decan-8-yl)-6-(hydroxymethyl)pyrazin-2-yl)thio)-3-chloropyridin-2-yl)piperidine-4-carbonyl)piperidin-4-yl)oxy)-4-(4-methylthiazol-5-yl)benzyl)-4-hydroxypyrrolidine-2-carboxamide]
8 | 99.0% | 99.4% | Cc1cn([C@H](C(=O)N2C[C@H](O)C[C@H]2C(=O)NCc2ccc(-c3scnc3C)cc2OC2CCN(C(=O)C3CCN(c4nccc(Sc5cnc(N6CCC(C)(N)CC6)c(CO)n5)c4Cl)CC3)CC2)C(C)C)nn1 [Example 109, (2S,4R)—N-(2-((1-(1-(4-((5-(4-amino-4-methylpiperidin-1-yl)-6-(hydroxymethyl)pyrazin-2-yl)thio)-3-chloropyridin-2-yl)piperidine-4-carbonyl)piperidin-4-yl)oxy)-4-(4-methylthiazol-5-yl)benzyl)-4-hydroxy-1-((S)-3-methyl-2-(4-methyl-1H-1,2,3-triazol-1-yl)butanoyl)pyrrolidine-2-carboxamide]
9 | 99.6% | 99.7% | Cc1cc(C(C(=O)N2C[C@H](O)C[C@H]2C(=O)NCc2ccc(-c3scnc3C)cc2OC2CCN(C(=O)C3CCN(c4nccc(Sc5cnc(N6CCC7(CC6)CO[C@@H](C)[C@H]7N)c(CO)n5)c4Cl)CC3)CC2)C(C)C)on1 (stereo partly drawn) [Example 98, (2S,4R)—N-(2-((1-(1-(4-((5-((3S,4S)-4-amino-3-methyl-2-oxa-8-azaspiro[4.5]decan-8-yl)-6-(hydroxymethyl)pyrazin-2-yl)thio)-3-chloropyridin-2-yl)piperidine-4-carbonyl)piperidin-4-yl)oxy)-4-(4-methylthiazol-5-yl)benzyl)-4-hydroxy-1-(3-methyl-2-(3-methylisoxazol-5-yl)butanoyl)pyrrolidine-2-carboxamide]

From patent US20260144788A1, “COMPOUND FOR SHP2 PROTEIN DEGRADATION AND MEDICAL USES THEREOF” (UBIX THERAPEUTICS, INC., priority 2022, published 2026)
